Square brackets hold non-standard residues; d marks the D form. Primed or numbered codes have the meaning given here. Ends that are not written are not given here. PEG12′ = not defined here; Nle = CCCC[C@H](N)C(=O)O
Key:
[1] = test system: established lung fibrosis induced by bleomycin in male C57BL/6 mice; experiment: Therapeutic mouse model of idiopathic pulmonary fibrosis, peptide combined with nintedanib (Example 1); format: in vivo; conditions: peptide 5 mg/kg/day IP; for Mean Pro-inflammatory Cytokine Level IFNγ / Mean Pro-inflammatory Cytokine Level IL-1β / Mean Pro-inflammatory Cytokine Level IL-6 / Mean Pro-inflammatory Cytokine Level KC/GRO / Mean Pro-inflammatory Cytokine Level MCP-1 / Mean Pro-inflammatory Cytokine Level MIP-1α / Mean Pro-inflammatory Cytokine Level TNFα: BALF, MSD; for Mean Pro-inflammatory Cytokine Level IFNγ / Mean Pro-inflammatory Cytokine Level IL-1β / Mean Pro-inflammatory Cytokine Level IL-6 / Mean Pro-inflammatory Cytokine Level KC/GRO / Mean Pro-inflammatory Cytokine Level MCP-1 / Mean Pro-inflammatory Cytokine Level MIP-1α / Mean Pro-inflammatory Cytokine Level TNFα / Mean (SEM) Number of Lymphocytes in BALF / Mean (SEM) Number of Macrophages in BALF / Mean (SEM) Number of Neutrophils in BALF: Day 21, nintedanib 60 mg/kg/day PO; for Mean (SEM) Normalized Lung Weight / Mean (SEM) Ashcroft Score / Mean (SEM) Collagen Deposition Score in Lung Tissue / Mean (SEM) Soluble Collagen Content in BALF: Day 21 after 14 days of daily treatment, nintedanib 60 mg/kg/day PO; for Mean (SEM) Ashcroft Score: H&E; for Mean (SEM) Collagen Deposition Score in Lung Tissue: Masson's Trichrome; for Mean (SEM) Soluble Collagen Content in BALF: Sircol assay
Procedure: The effect of combining the peptides of Formula I with a second antifibrotic drug on the progression of established lung fibrosis were assessed by monitoring lung fibrosis, lung weight, inflammatory cells in bronchoalveolar lavage fluid (BALF), soluble collagen in BALF, cytokine secretion, and body weight change in a therapeutic mouse model of idiopathic pulmonary fibrosis. Lung fibrosis was induced in lungs of male C57BL/6 mice between the ages of 6 to 8 weeks by nasophayngeal administration of bleomycin (1.5U/kg using bleomycin clinical formulation diluted in PBS). A control group of animals were administered saline by the nasopharyngeal route (no-bleomycin control group). After one week, bleomycin-treated animals were randomized to treatment groups (N=10 per group) by body weight and treated daily with vehicle control, nintedanib (60 mg/kg/day PO), peptide (5 mg/kg/day by intraperitoneal injection), or the combination of nintedanib (60 mg/kg/day PO) and peptide (5 mg/kg/day by intraperitoneal injection). After 14 days of treatment (Day 21), lungs were removed and weighed. The post-caval lobe was separated and snap frozen. The lungs were flushed with Hanks Buffer and bronchoalveolar lavage fluid (BALF) was harvested from each animal Differential cell counts in BALF were obtained. Levels of pro-inflammatory cytokines in BALF were determined using a meso scale discovery (MSD) system. Slides were prepared from the remaining BALF leukocytes, fixed and stained with May Geimsa stain and the differential counts were recorded manually. BALF was evaluated for soluble collagen using a Sircol assay. Lungs were fixed in 10% neutral buffered formalin (NBF) for histopathological analysis. Fibrosis was assessed by histopathological analysis of H&E stained mouse lungs using an Ashcroft scoring system. Collagen deposition in lung tissue was assessed by histopathological analysis of Masson's Trichrome stained mouse lungs using a standard scoring system for severity.

[2] = test system: established lung fibrosis induced by bleomycin in male C57BL/6 mice; experiment: Therapeutic mouse model of idiopathic pulmonary fibrosis, peptides alone (Example 2); format: in vivo
Procedure: The effect of the peptides on the progression of established lung fibrosis were assessed by monitoring lung fibrosis, lung weight, inflammatory cells in bronchoalveolar lavage fluid (BALF), soluble collagen in BALF, cytokine secretion in BALF, and body weight change in a therapeutic mouse model of idiopathic pulmonary fibrosis. Lung fibrosis was induced in lungs of male C57BL/6 mice between the ages of 6 to 8 weeks by nasophayngeal administration of bleomycin (1.5 U/kg using bleomycin clinical formulation diluted in PBS). A control group of animals were administered saline by the nasopharyngeal route (no-bleomycin control group). After one week, bleomycin-treated animals were randomized to treatment groups (N=10 per group) by body weight and treated daily with vehicle control, nintedanib positive control (60 mg/kg/day PO) or peptide (5 or 15 mg/kg/day by intraperitoneal injection). After 14 days of treatment (Day 21), lungs were removed and weighed. The post-caval lobe was separated and snap frozen. The lungs were flushed with Hanks Buffer and bronchoalveolar lavage fluid (BALF) was harvested from each animal Total BALF leukocyte were counted. Slides were prepared from the remaining BALF leukocytes, fixed and stained with May Geimsa stain and the differential counts were recorded manually. BALF was evaluated for soluble collagen using a Sircol assay. Lungs were fixed in 10% neutral buffered formalin (NBF) for histopathological analysis. Fibrosis was assessed by histopathological analysis of H&E stained mouse lungs using an Ashcroft scoring system. Collagen deposition in lung tissue was assessed by histopathological analysis of Masson's Trichrome stained mouse lungs using a standard scoring system for severity.

| Compound | Mean Pro-inflammatory Cytokine Level IFNγ [1] | Mean Pro-inflammatory Cytokine Level IL-1β [1] | Mean Pro-inflammatory Cytokine Level IL-6 [1] | Mean Pro-inflammatory Cytokine Level KC/GRO [1] | Mean Pro-inflammatory Cytokine Level MCP-1 [1] | Mean Pro-inflammatory Cytokine Level MIP-1α [1] | Mean Pro-inflammatory Cytokine Level TNFα [1] | Mean (SEM) Number of Lymphocytes in BALF [1] | Mean (SEM) Number of Macrophages in BALF [1] | Mean (SEM) Number of Neutrophils in BALF [1] | Mean (SEM) Normalized Lung Weight [1] | Mean (SEM) Ashcroft Score [1] | Mean (SEM) Collagen Deposition Score in Lung Tissue [1] | Mean (SEM) Ashcroft Score ([2]; Day 21, 15 mg/kg/day IP) | Mean (SEM) Collagen Content in BALF ([2]; Day 21, 15 mg/kg/day IP) | Mean (SEM) Collagen Deposition Score in Lung Tissue ([2]; Day 21, 15 mg/kg/day IP) | Mean (SEM) Normalized Lung Weight ([2]; Day 21, 15 mg/kg/day IP) | Mean (SEM) Number of Lymphocytes in BALF ([2]; Day 21, 15 mg/kg/day IP) | Mean (SEM) Number of Macrophages in BALF ([2]; Day 21, 15 mg/kg/day IP) | Mean (SEM) Number of Neutrophils in BALF ([2]; Day 21, 15 mg/kg/day IP) | further results |
| --- | --- | --- | --- | --- | --- | --- | --- | --- | --- | --- | --- | --- | --- | --- | --- | --- | --- | --- | --- | --- | --- |
| RVIRACLGVGLLGDL(dA)GK{PEG12} (RVIRACLGVGLLGDL[dA]GK(PEG12′); also: homodimer) [SEQ ID NO: 30] | 0.037 pg/mL | 0.03 pg/mL | 64.6 pg/mL | 16.7 pg/mL | 7.59 pg/mL | 0.52 pg/mL | 2.85 pg/mL | 8930 (3350) | 41700 (5740) | 1830 (1080) | 1.36 (0.10) | 2.93 (0.33) | 2.30 (0.26) | 2.00 (0.37) | 0.063 (0.007) mg/mL | 1.80 (0.33) | 1.22 (0.11) | 896 (254) | 3780 (559) | 122 (88) | Mean (SEM) Soluble Collagen Content in BALF [1]: 0.067 (0.013) mg/mL; Mean (SEM) Ashcroft Score ([2]; Day 21, 5 mg/kg/day IP): 1.92 (0.21); Mean (SEM) Collagen Content in BALF ([2]; Day 21, 5 mg/kg/day IP): 0.071 (0.020) mg/mL; Mean (SEM) Collagen Deposition Score in Lung Tissue ([2]; Day 21, 5 mg/kg/day IP): 1.67 (0.29); Mean (SEM) Normalized Lung Weight ([2]; Day 21, 5 mg/kg/day IP): 1.15 (0.03); Mean (SEM) Number of Lymphocytes in BALF ([2]; Day 21, 5 mg/kg/day IP): 1210 (664); Mean (SEM) Number of Macrophages in BALF ([2]; Day 21, 5 mg/kg/day IP): 5070 (1130); Mean (SEM) Number of Neutrophils in BALF ([2]; Day 21, 5 mg/kg/day IP): 0 (0) |
| RVIRMCLGVGLLGDLAGK{PEG12} (RVIRMCLGVGLLGDLAGK(PEG12′); also: homodimer, disulfide at Cys6) [SEQ ID NO: 28] | – | – | – | – | – | – | – | – | – | – | – | – | – | 2.24 (0.25) | 0.080 (0.016) mg/mL | 2.00 (0.26) | 1.27 (0.05) | 1210 (233) | 6340 (792) | 261 (117) | – |
| RVIRACLGVGLLGDLAGK{PEG12} (RVIRACLGVGLLGDLAGK(PEG12′); also: homodimer, disulfide at Cys6) [SEQ ID NO: 36] | – | – | – | – | – | – | – | – | – | – | – | – | – | 3.33 (0.33) | 0.068 (0.008) mg/mL | 2.89 (0.35) | 1.32 (0.12) | 884 (442) | 6430 (930) | 165 (140) | Mean (SEM) Ashcroft Score ([2]; Day 21, 5 mg/kg/day IP): 2.65 (0.40); Mean (SEM) Collagen Content in BALF ([2]; Day 21, 5 mg/kg/day IP): 0.081 (0.010) mg/mL; Mean (SEM) Collagen Deposition Score in Lung Tissue ([2]; Day 21, 5 mg/kg/day IP): 2.50 (0.37); Mean (SEM) Normalized Lung Weight ([2]; Day 21, 5 mg/kg/day IP): 1.19 (0.06); Mean (SEM) Number of Lymphocytes in BALF ([2]; Day 21, 5 mg/kg/day IP): 987 (316); Mean (SEM) Number of Macrophages in BALF ([2]; Day 21, 5 mg/kg/day IP): 5180 (1030); Mean (SEM) Number of Neutrophils in BALF ([2]; Day 21, 5 mg/kg/day IP): 113 (60) |
| COC(=O)c1ccc2c(c1)NC(=O)/C2=C(\Nc1ccc(N(C)C(=O)CN2CCN(C)CC2)cc1)c1ccccc1 [Nintedanib, nintedanib, reference compound] | 0.019 pg/mL | 0.50 pg/mL | 384 pg/mL | 29.3 pg/mL | 35.8 pg/mL | 1.05 pg/mL | 2.76 pg/mL | 18700 (5200) | 49200 (6450) | 3040 (1370) | 1.49 (0.17) | 2.82 (0.39) | 2.22 (0.43) | – | – | – | – | – | – | – | Mean (SEM) Soluble Collagen Content in BALF [1]: 0.048 (0.005) mg/mL; Mean (SEM) Ashcroft Score ([2]; Day 21, 60 mg/kg/day PO): 2.35 (0.38); Mean (SEM) Collagen Content in BALF ([2]; Day 21, 60 mg/kg/day PO): 0.061 (0.011) mg/mL; Mean (SEM) Collagen Deposition Score in Lung Tissue ([2]; Day 21, 60 mg/kg/day PO): 2.20 (0.36); Mean (SEM) Normalized Lung Weight ([2]; Day 21, 60 mg/kg/day PO): 1.16 (0.07); Mean (SEM) Number of Lymphocytes in BALF ([2]; Day 21, 60 mg/kg/day PO): 1180 (631); Mean (SEM) Number of Macrophages in BALF ([2]; Day 21, 60 mg/kg/day PO): 5030 (823); Mean (SEM) Number of Neutrophils in BALF ([2]; Day 21, 60 mg/kg/day PO): 201 (77) |
| RVIR(Nle)CLGVGLLGDL(dA)GK{PEG12} (RVIR[Nle]CLGVGLLGDL[dA]GK(PEG12′); also: homodimer, disulfide at Cys6) [SEQ ID NO: 32] | 0.020 pg/mL | 0.07 pg/mL | 269 pg/mL | 21.5 pg/mL | 29.7 pg/mL | 0.95 pg/mL | 3.05 pg/mL | 28600 (5480) | 86600 (7070) | 5850 (2220) | 1.57 (0.20) | 3.12 (0.45) | 2.56 (0.48) | 2.26 (0.35) | 0.091 (0.016) mg/mL | 2.10 (0.35) | 1.20 (0.05) | 1270 (584) | 5030 (974) | 96 (64) | Mean (SEM) Soluble Collagen Content in BALF [1]: 0.058 (0.005) mg/mL; Mean (SEM) Ashcroft Score ([2]; Day 21, 5 mg/kg/day IP): 2.26 (0.27); Mean (SEM) Collagen Content in BALF ([2]; Day 21, 5 mg/kg/day IP): 0.074 (0.019) mg/mL; Mean (SEM) Collagen Deposition Score in Lung Tissue ([2]; Day 21, 5 mg/kg/day IP): 2.20 (0.25); Mean (SEM) Normalized Lung Weight ([2]; Day 21, 5 mg/kg/day IP): 1.17 (0.03); Mean (SEM) Number of Lymphocytes in BALF ([2]; Day 21, 5 mg/kg/day IP): 946 (579); Mean (SEM) Number of Macrophages in BALF ([2]; Day 21, 5 mg/kg/day IP): 5530 (1090); Mean (SEM) Number of Neutrophils in BALF ([2]; Day 21, 5 mg/kg/day IP): 61 (61) |

Reference: patent publication US20230372434A1, “METHOD OF TREATING FIBROSIS WITH A COMBINATION THERAPY” (COHBAR, INC., priority 2020, published 2023)
